Assay results taken from patent US20210238162A1, “CHEMICAL COMPOUNDS” (GlaxoSmithKline Intellectual Property Development Limited, priority 2015, published 2021).
Counter-ions that a name gives are not always drawn.

Target: T1, haematopoietic prostaglandin D synthase (H-PGDS) (Homo sapiens, UniProt O60760)
T1 construct: Full length human H-PGDS cDNA (Invitrogen Ultimate ORF IOH13026) was amplified by PCR; made in house; host or cells: E. coli BL21 (DE3*), vector pET22b+
Assay: H-PGDS RapidFire High Throughput Mass Spectrometry Assay
Type: biochemical
Conditions: H-PGDS RapidFire MS assay, mean pIC50; read-out: Potency Range (mean pIC50) (converted)
Method in brief: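 PGH2 (~10 μM burst) generated in situ from arachidonic acid by FLAG-tagged human COX-2 (Sf9-expressed), then converted to PGD2 by full-length human His-tagged H-PGDS from E. coli. PGD2 and PGF2α (substrate surrogate) quantified by RapidFire SPE-triple quadrupole MS; percent conversion calculated.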

T1 sequence (O60760 whole entry): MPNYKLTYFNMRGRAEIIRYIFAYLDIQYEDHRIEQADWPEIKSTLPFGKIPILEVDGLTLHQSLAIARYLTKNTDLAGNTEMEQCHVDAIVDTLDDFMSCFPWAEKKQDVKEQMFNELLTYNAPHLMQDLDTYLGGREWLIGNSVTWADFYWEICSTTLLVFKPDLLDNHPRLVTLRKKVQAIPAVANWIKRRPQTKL

| SMILES | IC50 [nM] |
| --- | --- |
| C[C@@H]1CNC(=O)[C@H]1NC(=O)c1cnc2cc(OC(F)F)c(Cl)cc2c1 [Example 144, 6-Chloro-7-(difluoromethoxy)-N-((3S,4R)-4-methy-2-oxopyrrolidin-3-yl)quinoline-3-carboxamide] | < 10 |
| CC1(O)CCC(NC(=O)c2cnc3cc(OC(F)F)c(Cl)cc3c2)C1 (stereo not drawn) [Example 145, 6-Chloro-7-(difluoromethoxy)-N-(3-hydroxy-3-methylcyclopentyl)quinoline-3-carboxamide] | 10 to 79.4 |
| C[C@]1(O)CC[C@@H](NC(=O)c2cnc3cc(OC(F)F)c(Cl)cc3c2)CC1 [Example 147, 6-Chloro-7-(difluoromethoxy)-N-((1s,4s)-4-hydroxy-4-methylcyclohexyl)quinoline-3-carboxamide] | 10 to 79.4 |
| O=C(NC1CCOCC1)c1cnc2cc(OC(F)F)c(Cl)cc2c1 [Example 148, 6-Chloro-7-(difluoromethoxy)-N-(tetrahydro-2H-pyran-4-yl)quinoline-3-carboxamide] | 10 to 79.4 |
| O=C(NC1CCCOC1)c1cnc2cc(OC(F)F)c(Cl)cc2c1 (stereo not drawn) [Example 149, 6-Chloro-7-(difluoromethoxy)-N-(tetrahydro-2H-pyran-3-yl)quinoline-3-carboxamide] | 10 to 79.4 |
| CC1(C)CC(NC(=O)c2cnc3cc(OC(F)F)c(Cl)cc3c2)CCO1 (stereo not drawn) [Example 150, 6-Chloro-7-(difluoromethoxy)-N-(2,2-dimethyltetrahydro-2H-pyran-4-yl)quinoline-3-carboxamide] | 10 to 79.4 |
| CC(C)(O)[C@H]1CC[C@H](NC(=O)c2cnc3cc(C4CC4(F)F)c(F)cc3c2)CC1 (stereo partly drawn) [Example 151, 7-(2,2-Difluorocyclopropyl)-6-fluoro-N-(trans-4-(2-hydroxypropan-2-yl)cyclohexyl)quinoline-3-carboxamide] | 10 to 79.4 |
| CC(C)(O)[C@H]1CC[C@H](NC(=O)c2cnc3cc(OC(F)F)c(Br)cc3c2)CC1 [Example 152, 6-Bromo-7-(difluoromethoxy)-N-(trans-4-(2-hydroxypropan-2-yl)cyclohexyl)quinoline-3-carboxamide] | < 10 |
| O=C(N[C@H]1CC[C@H](N[C@@H](CO)C(F)(F)F)CC1)c1cnc2cc(OC(F)F)c(Br)cc2c1 [Example 153, 6-Bromo-7-(difluoromethoxy)-N-(trans-4-(((S)-1,1,1-trifluoro-3-hydroxypropan-2-yl)amino)cyclohexyl)quinoline-3-carboxamide] | < 10 |
| O=C(N[C@H]1CCNC1=O)c1cnc2cc(OC(F)F)c(Br)cc2c1 [Example 154, (S)-6-Bromo-7-(difluoromethoxy)-N-(2-oxopyrrolidin-3-yl)quinoline-3-carboxamide] | < 10 |
| O=C(N[C@H]1CC[C@H](N[C@H](CO)C(F)(F)F)CC1)c1cnc2cc(OC(F)F)c(Br)cc2c1 [Example 155, 6-Bromo-7-(difluoromethoxy)-N-(trans-4-(((R)-1,1,1-trifluoro-3-hydroxypropan-2-yl)amino)cyclohexyl)quinoline-3-carboxamide] | < 10 |
| C[C@]1(O)C[C@@H](NC(=O)c2cnc3cc(OC(F)F)c(Br)cc3c2)C1 [Example 157, 6-Bromo-7-(difluoromethoxy)-N-((1s,3s)-3-hydroxy-3-methylcyclobutyl)quinoline-3-carboxamide] | 10 to 79.4 |
| C[C@@H](N[C@H]1CC[C@H](NC(=O)c2cnc3cc(OC(F)F)c(Br)cc3c2)CC1)C(F)F [Example 158, 6-Bromo-7-(difluoromethoxy)-N-(trans-4-(((R)-1,1-difluoropropan-2-yl)amino)cyclohexyl)quinoline-3-carboxamide] | < 10 |
| C[C@H](N[C@H]1CC[C@H](NC(=O)c2cnc3cc(OC(F)F)c(Br)cc3c2)CC1)C(F)F [Example 159, 6-Bromo-7-(difluoromethoxy)-N-(trans-4-(((S)-1,1-difluoropropan-2-yl)amino)cyclohexyl)quinoline-3-carboxamide] | < 10 |
| CN(C)c1cc2ncc(C(=O)N[C@H]3CC[C@H](C(C)(C)O)CC3)cc2cc1F [Example 160, 7-(Dimethylamino)-6-fluoro-N-(trans-4-(2-hydroxypropan-2-yl)cyclohexyl)quinoline-3-carboxamide] | < 10 |
| CSc1cc2ncc(C(=O)N[C@H]3CC[C@H](C(C)(C)O)CC3)cc2cc1F [Example 161, 6-Fluoro-N-(trans-4-(2-hydroxypropan-2-yl)cyclohexyl)-7-(methylthio)quinoline-3-carboxamide] | < 10 |
| CC(C)(O)[C@H]1CC[C@H](NC(=O)c2cnc3cc(N4CCC4)c(F)cc3c2)CC1 [Example 162, 7-(Azetidin-1-yl)-6-fluoro-N-(trans-4-(2-hydroxypropan-2-yl)cyclohexyl)quinoline-3-carboxamide] | < 10 |
| CC(C)(O)[C@H]1CC[C@H](NC(=O)c2cnc3cc(N4CCCC4)c(F)cc3c2)CC1 [Example 163, 6-Fluoro-N-(trans-4-(2-hydroxypropan-2-yl)cyclohexyl)-7-(pyrrolidin-1-yl)quinoline-3-carboxamide] | 100 to 1000 |

| SMILES | IC50 [nM] |
| --- | --- |
| CC(C)(O)[C@H]1CC[C@H](NC(=O)c2cnc3cc(N4CC(F)C4)c(F)cc3c2)CC1 [Example 164, 6-Fluoro-7-(3-fluoroazetidin-1-yl)-N-(trans-4-(2-hydroxypropan-2-yl)cyclohexyl)quinoline-3-carboxamide] | < 10 |
| CC1(F)CN(c2cc3ncc(C(=O)N[C@H]4CC[C@H](C(C)(C)O)CC4)cc3cc2F)C1 [Example 165, 6-Fluoro-7-(3-fluoro-3-methylazetidin-1-yl)-N-(trans-4-(2-hydroxypropan-2-yl)cyclohexyl)quinoline-3-carboxamide] | 10 to 79.4 |
| O=C(N[C@H]1CCNC1=O)c1cnc2cc(N3CCC3)c(Cl)cc2c1 [Example 166, (S)-7-(Azetidin-1-yl)-6-chloro-N-(2-oxopyrrolidin-3-yl)quinoline-3-carboxamide trifluoroacetic Acid Salt] | < 10 |
| CC1(O)CC(NC(=O)c2cnc3cc(N4CCC4)c(Cl)cc3c2)C1 (stereo not drawn) [Example 167, 7-(Azetidin-1-yl)-6-chloro-N-(3-hydroxy-3-methylcyclobutyl)quinoline-3-carboxamide trifluoroacetic Acid Salt] | < 10 |
| CC(C)(O)[C@H]1CC[C@H](NC(=O)c2cnc3cc(N=[N+]=[N-])c(Cl)cc3c2)CC1 [Example 168, 7-Azido-6-chloro-N-(trans-4-(2-hydroxypropan-2-yl)cyclohexyl)quinoline-3-carboxamide] | 10 to 79.4 |
| O=C(N[C@H]1CCNC1=O)c1cnc2cc(N3CC(F)C3)c(Cl)cc2c1 [Example 169, (S)-6-Chloro-7-(3-fluoroazetidin-1-yl)-N-(2-oxopyrrolidin-3-yl)quinoline-3-carboxamide] | < 10 |
| CC(=O)c1cc2ncc(C(=O)N[C@H]3CC[C@H](C(C)(C)O)CC3)cc2cc1Cl [Example 172, 7-Acetyl-6-chloro-N-(trans-4-(2-hydroxypropan-2-yl)cyclohexyl)quinoline-3-carboxamide] | < 10 |
| CC(C)(O)[C@H]1CC[C@H](NC(=O)c2cnc3cc(N)c(F)cc3c2)CC1 [Example 173, 7-Amino-6-fluoro-N-(trans-4-(2-hydroxypropan-2-yl)cyclohexyl)quinoline-3-carboxamide] | 100 to 1000 |
| C[C@H]1CCN1c1cc2ncc(C(=O)N[C@H]3CC[C@H](C(C)(C)O)CC3)cc2cc1F [Example 174, 6-Fluoro-N-(trans-4-(2-hydroxypropan-2-yl)cyclohexyl)-7-((S)-2-methylazetidin-1-yl)quinoline-3-carboxamide] | 10 to 79.4 |
| C[C@@H]1CCN1c1cc2ncc(C(=O)N[C@H]3CC[C@H](C(C)(C)O)CC3)cc2cc1F [Example 175, 6-Fluoro-N-(trans-4-(2-hydroxypropan-2-yl)cyclohexyl)-7-((R)-2-methylazetidin-1-yl)quinoline-3-carboxamide] | 100 to 1000 |
| C[C@H]1CCN1c1cc2ncc(C(=O)N[C@H]3CCNC3=O)cc2cc1F [Example 176, 6-Fluoro-7-((S)-2-methylazetidin-1-yl)-N—((S)-2-oxopyrrolidin-3-yl)quinoline-3-carboxamide] | 10 to 79.4 |
| CC(C)(O)[C@H]1CC[C@H](NC(=O)c2cnc3cc(N4CC(F)(F)C4)c(F)cc3c2)CC1 [Example 177, 7-(3,3-Difluoroazetidin-1-yl)-6-fluoro-N-(trans-4-(2-hydroxypropan-2-yl)cyclohexyl)quinoline-3-carboxamide] | 10 to 79.4 |
| CCOc1cc2ncc(C(=O)N[C@H]3CC[C@H](C(C)(C)O)CC3)cc2cc1F [Example 178, 7-Ethoxy-6-fluoro-N-(trans-4-(2-hydroxypropan-2-yl)cyclohexyl)quinoline-3-carboxamide] | 10 to 79.4 |
| CC(C)(O)[C@H]1CC[C@H](NC(=O)c2cnc3cc(C4CCC4)c(Cl)cc3c2)CC1 [Example 179, 6-Chloro-7-cyclobutyl-N-(trans-4-(2-hydroxypropan-yl)cyclohexyl)quinoline-3-carboxamide] | < 10 |
| C[C@]1(O)C[C@@H](NC(=O)c2cnc3cc(C4CCC4)c(Cl)cc3c2)C1 [Example 180, 6-Chloro-7-cyclobutyl-N-((1s,3s)-3-hydroxy-3-methylcyclobutyl)quinoline-3-carboxamide] | 10 to 79.4 |
| O=C(N[C@H]1CCNC1=O)c1cnc2cc(C3CCC3)c(Cl)cc2c1 [Example 181, (S)-6-Chloro-7-cyclobutyl-N-(2-oxopyrrolidin-3-yl)quinoline-3-carboxamide] | < 10 |
| CC1CCN1c1cc2ncc(C(=O)N[C@H]3CCNC3=O)cc2cc1Cl (stereo partly drawn) [Example 182, 6-Chloro-7-(2-methylazetidin-1-yl)-N—((S)-2-oxopyrrolidin-3-yl)quinoline-3-carboxamide] | 10 to 79.4 |

Same assay, conditions: in at least one experimental run; read-out: H-PGDS pIC50 value (converted)

| SMILES | IC50 [nM] |
| --- | --- |
| CC1(C)CC(NC(=O)c2cnc3cc(OC(F)F)c(Cl)cc3c2)CCO1 (stereo not drawn) [Example 150, 6-Chloro-7-(difluoromethoxy)-N-(2,2-dimethyltetrahydro-2H-pyran-4-yl)quinoline-3-carboxamide] | 39.8 |
| CN(C)c1cc2ncc(C(=O)N[C@H]3CC[C@H](C(C)(C)O)CC3)cc2cc1F [Example 160, 7-(Dimethylamino)-6-fluoro-N-(trans-4-(2-hydroxypropan-2-yl)cyclohexyl)quinoline-3-carboxamide] | 3.98 |
| CC1(F)CN(c2cc3ncc(C(=O)N[C@H]4CC[C@H](C(C)(C)O)CC4)cc3cc2F)C1 [Example 165, 6-Fluoro-7-(3-fluoro-3-methylazetidin-1-yl)-N-(trans-4-(2-hydroxypropan-2-yl)cyclohexyl)quinoline-3-carboxamide] | 63.1 |
| CC(C)(O)[C@H]1CC[C@H](NC(=O)c2cnc3cc(N4CC(F)(F)C4)c(F)cc3c2)CC1 [Example 177, 7-(3,3-Difluoroazetidin-1-yl)-6-fluoro-N-(trans-4-(2-hydroxypropan-2-yl)cyclohexyl)quinoline-3-carboxamide] | 20 |
